Data as given in paper PMC5665762, “Phase 1 study of veliparib with carboplatin and weekly paclitaxel in Japanese patients with newly diagnosed ovarian cancer” (Cancer Science, 2017).
One block for each compound: values may come before it.

Key:
[1] = test system: Japanese patients with newly diagnosed ovarian cancer; assay: Phase 1 safety/tolerability: treatment-emergent adverse events, DLT, MTD, RP2D
Procedure: This was a phase 1, open‐label, multicenter, dose‐escalation study to evaluate the tolerability, safety, PK and preliminary efficacy of oral veliparib in combination with carboplatin and weekly paclitaxel in Japanese patients with ovarian cancer. Patients were assigned to treatment with veliparib at either 100 mg (dose level 1 [DL1]) or 150 mg (DL2) b.i.d. on days 1–21 of a 21‐day cycle. […] After completion of cycle 1, subsequent cycles were not begun until the patient's ANC was ≥1500/mm^3 and the platelet count ≥100 000/mm^3. Patients with ANC 1000–1499/mm^3 or platelet count 75 000–99 000/mm^3 (or both) could proceed to the next cycle of therapy with a predefined dose modification (Table S1). On day 8 or 15 of each cycle, another dose modification guideline was applied (Table S2). The patient's participation in the study was discontinued upon the third occurrence of hematologic toxicity that required dose modification per protocol. Treatment could be postponed for up to 21 days because of toxicity; longer toxicity‐related delay led to study discontinuation. Reduction of carboplatin and paclitaxel doses was permitted based on the toxicity observed (Table S3), which could necessitate discontinuation of either agent. At the investigator's discretion, patients who discontinued veliparib were […] to discontinue the study but could continue to receive carboplatin and paclitaxel as standard of care. The trial was conducted in accordance with good clinical practice, the International Conference on Harmonization guidelines, and the 1964 Declaration of Helsinki and its later amendments; written informed consent was obtained from all patients before study enrollment.
Dose escalation proceeded according to a 3 + 3 design to determine dose‐limiting toxicities (DLT), the maximum tolerated dose (MTD) and the RP2D. A minimum of 3 patients were enrolled at DL1. If none of these patients experienced a DLT, 3 more patients would be enrolled at DL2. If 1 or 2 patients experienced a DLT at DL1, 3 more patients would be enrolled at the same dose level. If ≤2 of 6 patients experienced a DLT, dose escalation would proceed to DL2. If ≥3 patients experienced a DLT, dose escalation would be stopped, with the following exceptions: (i) if 3 of 6 patients at DL1 experienced DLT, 3 more patients would enter the DL and the cohort be expanded to 9 patients, depending on a review of the specific DLT observed and discussion with the investigators; and (ii) if 3 of 9 patients at DL1 experienced DLT, escalation to DL2 would proceed, but if >3 of 9 patients experienced DLT, then dose escalation would stop.
Dose‐limiting toxicities were determined based on events that occurred during the DLT evaluation period from day 1 of cycle 1 through pre‐dosing on day 1 of cycle 2. A patient was considered to be evaluable for DLT assessment if they had completed cycle 1 with the assigned regimen or had prematurely discontinued cycle 1 or experienced an adverse event (AE) related to veliparib. AE that occurred after the DLT evaluation period were considered in dose‐escalation decisions and tolerability assessment. The MTD was defined as the highest dose level at which ≤2 of 6 or ≤3 of 9 patients experienced a DLT. The RP2D was determined on the basis of assessment of the observed toxicities, the MTD, the overall safety profile of the regimen, and the PK of veliparib. In the event that the MTD was not reached, the RP2D was to be defined on the basis of safety and PK data and would not be higher than the maximum administered dose. Any of the following events that were considered to have a reasonable possibility of being related to the administration of veliparib were defined as DLT: grade 4 neutropenia lasting more than 7 days; grade 4 thrombocytopenia; febrile neutropenia; any grade ≥3 nonhematologic toxicities except nausea, vomiting and diarrhea; and transient metabolic toxicities such as glucose changes, hypokalemia or hypophosphatemia.

CA‐125 = assay: Tumor marker CA-125 response (Gynecologic Cancer InterGroup definition); format: in vivo, Japanese patients
Procedure: (§1) During the screening visit, a complete medical history (including a detailed oncology history) was collected. Study visits occurred on days 1, 8 and 15 of cycle 1 and each subsequent cycle; patients also attended for a final visit and a 30‐day follow‐up visit. AE monitoring was performed at each visit; most visits also included a physical examination and ECOG performance status evaluation. Toxicities were graded according to the NCI Common Terminology Criteria for Adverse Events version 4.03. For the determination of veliparib, carboplatin and paclitaxel PK, plasma samples were collected at multiple time points within 24 h of the first morning dose of veliparib on day 1 of cycle 1. The PK of carboplatin and paclitaxel were evaluated only with veliparib co‐administration. Values of the PK parameters of veliparib, carboplatin and paclitaxel, including the maximum observed plasma concentration (C max), time to C max (T max) and AUC, were determined by using noncompartmental methods. In addition to tumor assessment at baseline, tumor response was assessed by using the Response Evaluation Criteria In Solid Tumors (RECIST) version 1.113 every 9 weeks from day 1 of cycle 1 and at the final visit. The tumor marker cancer antigen 125 (CA‐125) was evaluated on day 1 of each cycle and at the final visit.

[2] = test system: non‐small cell lung cancer; design: method as in PMID 26433581; conditions: veliparib with carboplatin/paclitaxel, Japanese NSCLC patients, no more than 1 prior line of treatment; cited from earlier work
[3] = test system: target lesions, ovarian cancer; assay: Tumor response by RECIST version 1.1; format: in vivo, Japanese patients
Procedure: as §1

[4] = Plasma pharmacokinetics on day 1 of cycle 1 (noncompartmental); design: AUC(0-inf): dose or concentration left out as unconfirmed
Procedure: as §1

[5] = Total (both veliparib doses) + carboplatin/paclitaxel, N = 9, All grades
[6] = Total (both veliparib doses) + carboplatin/paclitaxel, N = 9, Grade 3 or 4
[7] = all 9 patients, regardless of relation to veliparib
[8] = veliparib 100 mg BID + carboplatin/paclitaxel, n = 3, All grades
[9] = veliparib 150 mg BID + carboplatin/paclitaxel, n = 6, All grades
[10] = veliparib dose 100 mg, day 1 of cycle 1, N 3, mean ± SD
[11] = veliparib dose 150 mg, day 1 of cycle 1, N 6, mean ± SD

SMILES: C[C@]1(c2nc3c(C(N)=O)cccc3[nH]2)CCCN1 [Veliparib]
- Nail disorder, TEAE [1, 5]: 2 (22) n (%)
- Nausea, TEAE [1, 5]: 6 (67) n (%)
- Neutropenia (including neutrophil count decreased), TEAE [1, 5]: 9 (100) n (%)
- Peripheral sensory neuropathy (including neuropathy peripheral), TEAE [1, 5]: 7 (78) n (%)
- Rash, TEAE [1, 5]: 2 (22) n (%)
- Stomatitis, TEAE [1, 5]: 2 (22) n (%)
- Thrombocytopenia (including platelet count decreased), TEAE [1, 5]: 5 (56) n (%)
- Vomiting, TEAE [1, 5]: 4 (44) n (%)
- Alopecia, TEAE [1, 6]: 0 n (%)
- Anemia, TEAE [1, 6]: 5 (56) n (%)
- Any AE, TEAE [1, 6]: 7 (78) n (%)
- Arthralgia, TEAE [1, 6]: 0 n (%)
- Constipation, TEAE [1, 6]: 0 n (%)
- Decreased appetite, TEAE [1, 6]: 0 n (%)
- Dry skin, TEAE [1, 6]: 0 n (%)
- Dysgeusia, TEAE [1, 6]: 0 n (%)
- Leukopenia (including white blood cell count decreased), TEAE [1, 6]: 4 (44) n (%)
- Malaise, TEAE [1, 6]: 0 n (%)
- Nail disorder, TEAE [1, 6]: 0 n (%)
- Nasopharyngitis, TEAE [1, 6]: 0 n (%)
- Nausea, TEAE [1, 6]: 0 n (%)
- Neutropenia (including neutrophil count decreased), TEAE [1, 6]: 7 (78) n (%)
- Peripheral sensory neuropathy (including neuropathy peripheral), TEAE [1, 6]: 0 n (%)
- Rash, TEAE [1, 6]: 0 n (%)
- Stomatitis, TEAE [1, 6]: 0 n (%)
- Vomiting, TEAE [1, 6]: 0 n (%)
- AE that led to death ([1]; all 9 patients): no AE that led to death
- alopecia, TEAE of any grade [1, 7]: 89%
- anemia, TEAE of any grade [1, 7]: 67%
- anemia, grade 3 or 4 TEAE [1, 7]: 56%
- malaise, TEAE of any grade [1, 7]: 67%
- nausea, TEAE of any grade [1, 7]: 67%
- neutropenia, TEAE of any grade [1, 7]: 100%
- neutropenia, grade 3 or 4 TEAE ([1]; female, human, in vivo): 78%
- peripheral sensory neuropathy, TEAE of any grade ([1]; female, human, in vivo): 78%
- recommended phase 2 dose (RP2D) ([1]; in combination with carboplatin and weekly paclitaxel, determined on safety and PK data): 150 mg b.i.d.
- dose‐limiting toxicities (DLT) ([1]; in vivo): No DLT were observed at any dose level
- veliparib dose reduction ([1]; in vivo): No patient needed a veliparib dose reduction
- veliparib discontinued because of a TEAE ([1]; overall, 6 of 9 patients): 67%
- Alopecia, TEAE [1, 8]: 3 (100) n (%)
- Anemia, TEAE [1, 8]: 2 (67) n (%)
- Alopecia, TEAE [1, 9]: 5 (83) n (%)
- Anemia, TEAE [1, 9]: 4 (67) n (%)
- maximum tolerated dose (MTD) of the regimen ([1]; veliparib up to 150 mg b.i.d. with carboplatin and weekly paclitaxel): not reached
- CA‐125 response (Gynecologic Cancer InterGroup definition) (CA‐125; 8 of 9 patients): 89%
- median best percentage change from baseline in CA‐125 (CA‐125; overall, range −99.79% to −34.96%): −89.33%
- median best percentage change from baseline in CA‐125 (CA‐125; veliparib 100 mg b.i.d. cohort, range −97.31% to −65.25%): −94.24%
- median best percentage change from baseline in CA‐125 (CA‐125; veliparib 150 mg b.i.d. cohort, range −99.79% to −34.96%): −84.87%
- objective response rate [2]: 55%
- objective response rate ([3]; 5 assessed patients, veliparib plus carboplatin and paclitaxel): 100%
- partial response ([3]; both cohorts, of 5 assessed patients): 4 patients
- median best percentage change from baseline in the sum of target lesions ([3]; overall, range −100.00% to −50.00%): −53.51%
- partial response ([3]; veliparib 100 mg b.i.d.): 1 patients
- complete response ([3]; veliparib 100 mg b.i.d. cohort, of 5 assessed patients): One patient had a complete response
- median best percentage change from baseline in the sum of target lesions ([3]; veliparib 100 mg b.i.d. cohort, range −100.00% to −53.51%): −76.75%
- partial response ([3]; veliparib 150 mg b.i.d.): 3 patients
- median best percentage change from baseline in the sum of target lesions ([3]; veliparib 150 mg b.i.d. cohort, range −90.29% to −50.00%): −51.57%
- PK interaction between veliparib and carboplatin or paclitaxel ([4]; cross‐study comparison): no PK interaction
- AUC0–8/dose [4, 10]: 37.2 ± 4.37 ng·h/mL/mg
- C max/dose [4, 10]: 9.73 ± 1.63 ng/mL/mg
- AUC0–8/dose [4, 11]: 36.7 ± 8.10 ng·h/mL/mg
- C max/dose [4, 11]: 7.19 ± 1.16 ng/mL/mg

SMILES: N.N.O=C([O-])C1(C(=O)[O-])CCC1.[Pt+2] [carboplatin]
- patients needing ≥1 carboplatin dose reduction ([1]; 7 of 9, beginning at cycle 2, due to hematologic toxicities): 78%
- C max ([4]; carboplatin measured as total platinum, AUC 6 mg/mL•min i.v. day 1 with veliparib, mean (SD)): 23.3 (4.28) μg/mL
- AUC from time zero to infinity (AUC∞) ([4]; carboplatin measured as total platinum, i.v. day 1 with veliparib, mean (SD)): 5.30 (0.491) mg•min/mL

- AUC(0-inf) ([4]; female, human, in vivo): 5320 ng·h/mL
- Cmax ([4]; female, human, in vivo): 3300 ng/mL
SMILES: CC(=O)O[C@H]1C(=O)[C@@]2(C)[C@H]([C@H](OC(=O)c3ccccc3)[C@]3(O)C[C@H](OC(=O)[C@H](O)[C@@H](NC(=O)c4ccccc4)c4ccccc4)C(C)=C1C3(C)C)[C@]1(OC(C)=O)CO[C@@H]1C[C@@H]2O [paclitaxel]
